Laboratory results published in patent US20230089267A1, “Compositions and Methods For Reducing Immune Intolerance and Treating Autoimmune Disorders” (Lapix Therapeutics, Inc., priority 2021, published 2023).

Key:
[1] = test system: FoxP3+/CD4+ T-cells in splenocytes from naïve C57BL/6 mice; experiment: In vitro dose-response, percent FoxP3+/CD4+ T-cells in murine splenocytes; type: cell-based
Procedure: All animal studies were conducted under IACUC number B2020-91 and in compliance with Tufts University/Tufts Medical Center & Human Nutrition Research Center on Aging. Animals were housed four in a cage and had access to food and water ad libitum. Anti-FoxP3 and anti-CD4 for flow cytometry were obtained from eBioscience. Compounds 1-3 were formulated with 10% DMPC in PBS. PS liposomes were synthesized at a 30:70 PS:lipid molar ratio.
Splenocytes from naïve C57BL/6 mice were stained with CFSE, seeded at 2×10^5 cells/well, and dosed with each compound from 1e^−4 μM to 3.0e^−9 μM using a log 2 dilution scheme. Cells were incubated for 72 hours before phenotyping for FoxP3+/CD4+ T-cells. Flow cytometer analysis was performed to assess changes in percent FoxP3+/CD4+ T-cells as a function of compound and dose. Concentration versus response was fitted to a 4-parameter, log-logistic model using the “dre” package in “R”. Both EC50 and EC90 were obtained by model fitting.
Cells were observed via a microscope at the end of the incubation period. All cells looked healthy and suitable for flow cytometry analysis.
Table 2 summarizes EC50 and EC90 values obtained from the model fitting.

NMO mouse model = experiment: AQP4-p201-p220-induced neuromyelitis optica mouse model, fundoscopy; type: in vivo, mice; conditions: number of eyes since randomization, 3 μg SC daily, 20 eyes
Procedure: NMO is a CNS autoimmune inflammatory demyelinating disease that causes optico-spinal disorder leading to paralysis and vision loss. NMO mouse model was established by using AQP4-p201-p220 peptide (from Genemed Synthesis Inc.). Briefly, C57BL/6 mice (n=30) were immunized on day 0 with 100 micrograms of the AQP4-p201-p220 peptide emulsified in CFA. Mice were injected subcutaneously at the tail base under anesthesia. On the day of injection (Day 0) and two days later, mice received intraperitoneal injection of pertussis toxin (PTx) in PBS at 200 ng/mouse/dose (0.1 ml).
Prior to immunizing the mice on day 0, both eyes of each of the mice were imaged by fundoscopy. Fundoscopy was employed to study (a) optic disc inflammation, and (b) retinal damage (exudates as evidence of inflammation). Mice were monitored for disease onset daily after one week of immunization (day 7) for clinical symptoms, as per the scoring system developed by Ramadan et al., Brain 2016. Mice with a score of 1.0 or any […] symptoms were immediately randomized into either group A or group B treatment regimens to receive up to 14 days of treatment. Group A (n=10) received Compound 2 3 μg SC daily, and Group B (n=8) served as a control and was treated with a placebo.
Fundoscopy was conducted on day 6 post-immunization and was later performed approximately once every four days, i.e., on days 9, 13, 16, 22, and 26. Each eye was scored for inflammation in the optic disc and retinal damage evident by the appearance of ‘exudates’ (blotchiness) in the fundus image. Eye samples were collected during the onset of disease and post-randomization after at least 9-12 days of treatment and on day 14 (end of study) to assess the histology of both the optic nerve and the retina.

[2] = test system: MOG35-55-induced murine EAE model; experiment: MOG35-55-induced murine EAE model versus standards of care (Example 4); type: in vivo, mice
Procedure: Experimental autoimmune (allergic) encephalomyelitis (EAE) is considered the best non-clinical model of multiple sclerosis (MS). EAE is characterized by immune responses against CNS tissue and can be induced in animals by immunizing them against proteins of the CNS. In the active EAE model, mice are immunized with MOG35-55 peptide emulsified in Complete Freund's Adjuvant (CFA) by subcutaneous injection at the tail base (0.1 mL of emulsion/mouse) under anesthesia. On the day of injection (Day 0) and 2 days later, mice receive an intraperitoneal injection of Pertussis Toxin (PT) in PBS at 600 ng/mouse/dose (0.1 mL).
Symptoms typically develop in mice 9-14 days after immunization (Day 0). Daily observation and scoring of mice start on Day 9 and continue until the end of the study. Table 5 details the expected clinical symptoms and the scoring criteria used in this study.
To evaluate the therapeutic effects of Compound 2, treatment was initiated after the first clinical symptoms were observed. […] Mice in all groups were monitored and scored daily for clinical symptoms.
At the end of the study, spleens were collected from a representative sample of mice from each group for splenocyte analysis. A single-cell suspension was prepared for cellular phenotyping by flow cytometry. Cells were stained and gated for CD4+ T-cells. Percent FoxP3+/CD4+ T-cells were evaluated by flow cytometry.

DSS-induced IBD model = experiment: Dextran sulfate sodium (DSS)-induced IBD model; type: in vivo, mice; conditions: 30 μg SC for 7 days then 3 μg SC for 7 days, both disease cycles
Procedure: IBD was induced in 6-8-week-old female C57/B6 mice by adding 3% DSS (Sigma Aldrich) in their drinking water for 3 days on 2 different occasions (days 0, 1, and 2 of the induction phase and days 11, 12, and 13 of the re-exposure phase). One group (n=5) was treated with Compound 2 (30 μg SC for 7 days) during the disease induction phase followed by a lower dose of Compound 2 (3 μg SC for 7 days) during the disease re-exposure phase. […] Mice body weight was monitored daily starting on day 0.

[3] = Pilot stability study of oral solution with HPBCD; type: physicochemical
Procedure: Oral dosing solutions of different concentrations of Compound 2 were compounded ranging from 0.02 mg/ml to 3 mg/ml using a 1:80 ratio of Compound 2:HPBCD. Briefly, the compounding was performed by weighing and dissolving HPBCD in sterile HPLC grade water. Then, Compound 2 was weighed and added to the HPBCD solution in an appropriate container. To enhance dissolution, sonication and magnetic stirring were alternated to obtain a clear solution. Then, the solution was dispensed into PET amber bottles, appropriately labeled and stored under refrigeration until dosing.
A pilot stability study was performed on a 0.7 mg/ml Compound 2 oral solution at three temperatures: −20° C., 4° C., and room temperature (RT).
Samples were also subjected to three freeze-thaw cycles (−20° C. to room temperature). Solutions were evaluated for clarity. […] The potency of these solutions was also determined using an LC/MS assay.

[4] = Mus musculus, T-cell, percent FoxP3+/CD4+ T-cells, 72 hours, 4-parameter log-logistic model fit

## N[C@@H](CNC(=O)Cc1ccc(OCc2cccc3ccccc23)cc1)C(=O)O [Compound 2, (S)-2-Amino-3-(2-(4-(naphthalen-1-ylmethoxy)phenyl)acetamido)propanoic acid]
[1]; [4]
  EC50: 0.00602 nM
  EC90: 0.0199 nM
[1]; high dose, from model fitting
  mean FoxP3+/CD4+ T-cells, upper plateau, mean (SEM): 4.54 (0.14) %
[1]; in words
  dose-response behaviour of FoxP3+/CD4+ T-cells: showed a clear plateau
[1]; low dose, from model fitting
  mean FoxP3+/CD4+ T-cells, lower plateau, mean (SEM): 2.20%
NMO mouse model
  Cleared/Clearing eyes (recovery): 4
  Maintained/No change: 14
  Worsening conditions: 0
[2]; 10-μg oral dose following one or two injections of anti-alpha4 integrin
  disease control after switching from anti-alpha4 integrin: resulted in disease control after disease onset
[2]; all doses and regimens
  control of MS symptoms after disease onset versus glatiramer acetate: more effective than glatiramer acetate
[2]; daily 10-μg oral dose
  control of MS symptoms after disease onset versus anti-alpha4 integrin: as effective as a full regimen of anti-alpha4 integrin
[2]; doses of Table 6, treatment from clinical score 1
  MS clinical score after disease onset: reduced the MS clinical score after disease onset in a dose-dependent manner
DSS-induced IBD model
  body weight change: less weight loss and more rapid recovery than untreated animals
[3]; 0.7 mg/ml oral solution, −20° C., 4° C. and room temperature
  potency on storage: Potency was maintained over a minimum period of three months at all storage conditions
[3]; 3-month storage and several freeze-thaw cycles
  potency after storage and freeze-thaw cycles, LC/MS assay: Potency was maintained
[3]; oral solution, −20° C. to room temperature
  clarity after three freeze-thaw cycles: No precipitation was observed, and all solutions maintained clarity
